The values that follow come from US11655238B2 (priority 2018, dated 2023).

Converted amounts (≈) assume the structure as drawn. Read-outs that look alike come from different tables or passages of the source.

What all share (type): cell-based
In experiment [1] the test system is Mycobacterium smegmatis strain (mc2155). Put plainly: Resazurin microplate MIC on Mycobacterium smegmatis. As to conditions: for MIC: Mycolicibacterium smegmatis, MC2155, 48 h. In general terms: Alamar Blue is a resazurin reagent that responds to reducing activity.
Experiment [2] relates to Mycobacterium bovis BCG strain. Put plainly: microbe, parasite or virus in culture. As to conditions: for MIC: Mycobacterium tuberculosis variant bovis BCG, BCG, 168 h, read-out: MIC (μg/mL) Mycobacterium bovis BCG, BCG strain, 7H9 medium, 37° C., 168 hours, resazurin; for inhibitory effect on BCG strain (summary of Table 2): in words.
The test system of experiment [3] is Mycobacterium tuberculosis H37Ra strain. The experiment in a line: microbe, parasite or virus in culture. As to conditions: for MIC: Mycobacterium tuberculosis, H37RA, 168 h, read-out: MIC (μg/mL) Mycobacterium tuberculosis H37Ra.
[4] abbreviates: mc2155, 7H9 medium, 37° C., 48 hours, resazurin, read-out: MIC (μg/mL) Mycobacterium smegmatis.

For `Cc1c(C(=O)N(C)CCNC2C3CC4CC(C3)CC2C4)nn(-c2ccc(Cl)cc2Cl)c1-c1ccc(Cl)cc1` (stereo not drawn) [Compound 74, N-(2-(((1r,3r,5r,7r)-adamantan-2-yl)amino)ethyl)-5-(4-chlorophenyl)-1-(2,4-dichlorophenyl)-N,4-dimethyl-1H-pyrazole-3-carboxamide], in experiment [1], the “inhibitory effect on smegmatis strain (summary of Table 2)” value (from here on “inhibitory effect on smegmatis strain”) is reported as “good inhibitory effects”. Further, the MIC in experiment [1] (setting [4]) amounted to 13.4 µg/mL (≈ 23.4 µM). For the same molecule, in experiment [2], the MIC came out at 3.35 µg/mL (≈ 5.86 µM) and the “inhibitory effect on BCG strain (summary of Table 2)” value (“inhibitory effect on BCG strain” below) is “good inhibitory effects”. Further, in experiment [3], the “inhibitory effect on H37Ra strain (summary of Table 2)” value (“inhibitory effect on H37Ra strain” for short) was “good inhibitory effects” and the MIC turned out to be 3.35 µg/mL (≈ 5.86 µM).
In the case of `Cc1c(C(=O)NCCCNC2C3CC4CC(C3)CC2C4)nn(-c2ccc(Cl)cc2Cl)c1-c1ccc(Cl)cc1` (stereo not drawn) [Compound 18, N-(3-(((1r,3r,5r,7r)-adamantan-2-yl)amino)propyl)-5-(4-chlorophenyl)-1-(2,4-dichlorophenyl)-4-methyl-1H-pyrazole-3-carboxamide], the “inhibitory effect on smegmatis strain” value in experiment [1] is listed as “good inhibitory effects”. The MIC came out at 24.4 µg/mL (≈ 42.6 µM) in experiment [1] (setting [4]), 6.1 µg/mL (≈ 10.7 µM) in experiment [2] and 6.1 µg/mL (≈ 10.7 µM) in experiment [3]. Moreover, the “inhibitory effect on BCG strain” value in experiment [2] is “good inhibitory effects”. In addition, the “inhibitory effect on H37Ra strain” value in experiment [3] is listed as “good inhibitory effects”.
Turning to `Cc1c(CNCCNC2C3CC4CC(C3)CC2C4)nn(-c2ccc(Cl)cc2Cl)c1-c1ccc(Cl)cc1` (stereo not drawn) [Compound 166, N1-((1r,3r,5r,7r)-adamantan-2-yl)-N2-((5-(4-chlorophenyl)-1-(2,4-dichlorophenyl)-4-methyl-1H-pyrazol-3-yl)-methyl)ethane-1,2-diamine], the MIC turned out to be 7.62 µg/mL (≈ 14 µM) in experiment [1] (setting [4]), 7.62 µg/mL (≈ 14 µM) in experiment [2] and 3.81 µg/mL (≈ 7 µM) in experiment [3].
Regarding `Cc1c(C(=O)NCCNC23CC4CC(C)(CC(C)(C4)C2)C3)nn(-c2ccc(Cl)cc2Cl)c1-c1ccc(Cl)cc1` [Compound 23, (5-(4-chlorophenyl)-1-(2,4-dichlorophenyl)-N-(2-(((1r,3R,5S,7r)-3,5-dimethyl-adamantan-1-yl)amino)ethyl)-4-methyl-1H-pyrazole-3-carboxamide], the “inhibitory effect on smegmatis strain” value in experiment [1] was “good inhibitory effects”. In addition, the results for the MIC in experiment [1] (setting [4]), in experiment [2] and in experiment [3] were 7.32 µg/mL (≈ 12.5 µM), 3.66 µg/mL (≈ 6.25 µM) and 1.83 µg/mL (≈ 3.12 µM), respectively. In addition, in experiment [2], the “inhibitory effect on BCG strain” value is given as “good inhibitory effects”. In addition, in experiment [3], the “inhibitory effect on H37Ra strain” value is recorded as “good inhibitory effects”.
As for `Cc1c(CNC(=O)CNC23CC4CC(C)(CC(C)(C4)C2)C3)nn(-c2ccc(Cl)cc2Cl)c1-c1ccc(Cl)cc1` [Compound 169, N-((5-(4-chlorophenyl)-1-(2,4-dichlorophenyl)-4-methyl-1H-pyrazol-3-yl)methyl)-2-(((1r,3R,5S,7r)-3,5-dimethyl-adamantan-1-yl)amino)-acetamide], the values for the MIC in experiment [1] (setting [4]), in experiment [2] and in experiment [3] were 0.95 µg/mL (≈ 1.62 µM), 1.91 µg/mL (≈ 3.26 µM) and 1.91 µg/mL (≈ 3.26 µM), respectively.
Regarding `Cc1c(C(=O)O[C@H]2C[C@@H]3CC[C@@]2(C)C3(C)C)nn(-c2ccc(Cl)cc2Cl)c1-c1ccc(Cl)cc1` [Compound 172, (1S,2S,4S)-1,7,7-trimethyl-bicyclo[2.2.1]heptan-2-yl 5-(4-chlorophenyl)-1-(2,4-dichlorophenyl)-4-methyl-1H-pyrazole-3-carboxylate], the MIC was over 338 µg/mL in experiment [1] (read-out: MIC (μg/mL) Mycobacterium smegmatis, mc2155, 7H9 medium, 37° C., 48 hours, resazurin); over 338 µg/mL in experiment [2]; 84.5 µg/mL (≈ 163 µM) in experiment [3].
Take `Cc1c(CNC(=O)NCCC23CC4CC(CC(C4)C2)C3)nn(-c2ccc(Cl)cc2Cl)c1-c1ccc(Cl)cc1` [Compound 12, 1-(2-((3r,5r,7r)-adamantan-1-yl)ethyl)-3-((5-(4-chloro-phenyl)-1-(2,4-dichlorophenyl)-4-methyl-1H-pyrazol-3-yl)-methyl)urea]: the figures for the MIC in experiment [1] (setting [4]), in experiment [2] and in experiment [3] were 15.2 µg/mL (≈ 26.6 µM), over 122 µg/mL and 122 µg/mL (≈ 213 µM), respectively.
